Results reported in ChEMBL document CHEMBL1201862, “PubChem BioAssay data set” (2004).
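Step 1: Grow cells in 96-well plates. Step 2: Expose to compound for 48 hours at 5 concentrations. Step 3: Interpolate endpoints linearly; if unreached, use highest concentration. The concentration for 50% growth inhibition is given as GI50.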 Activity calls are given as the source filed them. Cut-off read from the data, not from the text of the source: active = GI50 up to about 1.1 µM and inactive = higher.

Key:
Assay in all cases: growth of human tumour cells (NCI), 48 h
786-0 = system: 786-0
A549 = system: A549
ACHN = system: ACHN
CCRF-CEM = system: CCRF-CEM
COLO 205 = system: COLO 205
DLD-1 = system: DLD-1
DMS-114 = system: DMS-114
DMS-273 = system: DMS-273
EKVX = system: EKVX
HCC 2998 = system: HCC 2998
HCT-116 = system: HCT-116
HCT-15 = system: HCT-15
HL-60 = system: HL-60
HOP-18 = system: HOP-18
HOP-62 = system: HOP-62
HOP-92 = system: HOP-92
HT-29 = system: HT-29
IGROV-1 = system: IGROV-1
K562 = system: K562
KM-20L2 = system: KM-20L2
KM12 = system: KM12
LOX IMVI = system: LOX IMVI
LXFL 529 = system: LXFL 529
M14 = system: M14
M19-MEL = system: M19-MEL
MOLT-4 = system: MOLT-4
Malme-3M = system: Malme-3M
NCI-H226 = system: NCI-H226
NCI-H23 = system: NCI-H23
NCI-H460 = system: NCI-H460
NCI-H522 = system: NCI-H522
OVCAR-3 = system: OVCAR-3
OVCAR-4 = system: OVCAR-4
OVCAR-5 = system: OVCAR-5
OVCAR-8 = system: OVCAR-8
RPMI-8226 = system: RPMI-8226
RXF 393 = system: RXF 393
RXF 631 = system: RXF 631
SF-268 = system: SF-268
SF-295 = system: SF-295
SF-539 = system: SF-539
SK-MEL-28 = system: SK-MEL-28
SK-MEL-2 = system: SK-MEL-2
SK-MEL-5 = system: SK-MEL-5
SK-OV-3 = system: SK-OV-3
SN12C = system: SN12C
SNB-19 = system: SNB-19
SNB-75 = system: SNB-75
SR = system: SR
SW-620 = system: SW-620
TK-10 = system: TK-10
U-251 = system: U-251
UACC-257 = system: UACC-257
UACC-62 = system: UACC-62
UO-31 = system: UO-31
XF498 = system: XF498
A498 = system: A498
CAKI-1 = system: CAKI-1
SNB-78 = system: SNB-78

Compound: CC(C)C1COC(C(C)(C)C2=N[C@@H](C(C)C)CO2)=N1 (stereo partly specified)
- GI50 (786-0): > 100 µM (inactive)
- GI50 (A549): > 100 µM (inactive)
- GI50 (ACHN): > 100 µM (inactive)
- GI50 (CCRF-CEM): > 100 µM (inactive)
- GI50 (COLO 205): > 100 µM (inactive)
- GI50 (DLD-1): > 100 µM (inactive)
- GI50 (DMS-114): > 100 µM (inactive)
- GI50 (DMS-273): > 100 µM (inactive)
- GI50 (EKVX): > 100 µM (inactive)
- GI50 (HCC 2998): > 100 µM (inactive)
- GI50 (HCT-116): > 100 µM (inactive)
- GI50 (HCT-15): > 100 µM
- GI50 (HL-60): > 100 µM (inactive)
- GI50 (HOP-18): > 100 µM (inactive)
- GI50 (HOP-62): > 100 µM (inactive)
- GI50 (HOP-92): 70.3 µM (inactive)
- GI50 (HT-29): > 100 µM (inactive)
- GI50 (IGROV-1): > 100 µM (inactive)
- GI50 (K562): > 100 µM (inactive)
- GI50 (KM-20L2): > 100 µM (inactive)
- GI50 (KM12): > 100 µM (inactive)
- GI50 (LOX IMVI): > 100 µM (inactive)
- GI50 (LXFL 529): > 100 µM (inactive)
- GI50 (M14): > 100 µM (inactive)
- GI50 (M19-MEL): > 100 µM (inactive)
- GI50 (MOLT-4): > 100 µM (inactive)
- GI50 (Malme-3M): > 100 µM (inactive)
- GI50 (NCI-H226): > 100 µM (inactive)
- GI50 (NCI-H23): > 100 µM (inactive)
- GI50 (NCI-H460): > 100 µM (inactive)
- GI50 (NCI-H522): > 100 µM (inactive)
- GI50 (OVCAR-3): > 100 µM (inactive)
- GI50 (OVCAR-4): > 100 µM (inactive)
- GI50 (OVCAR-5): > 100 µM (inactive)
- GI50 (OVCAR-8): > 100 µM (inactive)
- GI50 (RPMI-8226): > 100 µM (inactive)
- GI50 (RXF 393): > 100 µM (inactive)
- GI50 (RXF 631): > 100 µM (inactive)
- GI50 (SF-268): > 100 µM (inactive)
- GI50 (SF-295): > 100 µM (inactive)
- GI50 (SF-539): > 100 µM (inactive)
- GI50 (SK-MEL-28): > 100 µM (inactive)
- GI50 (SK-MEL-2): > 100 µM (inactive)
- GI50 (SK-MEL-5): > 100 µM (inactive)
- GI50 (SK-OV-3): > 100 µM (inactive)
- GI50 (SN12C): > 100 µM (inactive)
- GI50 (SNB-19): > 100 µM (inactive)
- GI50 (SNB-75): > 100 µM (inactive)
- GI50 (SR): > 100 µM (inactive)
- GI50 (SW-620): > 100 µM (inactive)
- GI50 (TK-10): > 100 µM (inactive)
- GI50 (U-251): > 100 µM (inactive)
- GI50 (UACC-257): > 100 µM (inactive)
- GI50 (UACC-62): > 100 µM (inactive)
- GI50 (UO-31): > 100 µM (inactive)
- GI50 (XF498): > 100 µM (inactive)

Compound: COc1ccc(C(=O)Nc2ccn(CCOC(=O)c3ccc(OC)cc3)c(=O)n2)cc1
- GI50 (786-0): > 100 µM (inactive)
- GI50 (A498): 93.3 µM (inactive)
- GI50 (A549): > 100 µM (inactive)
- GI50 (ACHN): > 100 µM (inactive)
- GI50 (CAKI-1): > 100 µM (inactive)
- GI50 (CCRF-CEM): > 100 µM (inactive)
- GI50 (COLO 205): > 100 µM (inactive)
- GI50 (DLD-1): > 100 µM (inactive)
- GI50 (DMS-114): > 100 µM (inactive)
- GI50 (DMS-273): > 100 µM (inactive)
- GI50 (EKVX): > 100 µM (inactive)
- GI50 (HCT-116): > 100 µM (inactive)
- GI50 (HCT-15): > 100 µM
- GI50 (HL-60): > 100 µM (inactive)
- GI50 (HOP-18): > 100 µM (inactive)
- GI50 (HOP-62): 51.1 µM (inactive)
- GI50 (HOP-92): 63 µM (inactive)
- GI50 (HT-29): > 100 µM (inactive)
- GI50 (IGROV-1): > 100 µM (inactive)
- GI50 (K562): > 100 µM (inactive)
- GI50 (KM-20L2): > 100 µM (inactive)
- GI50 (KM12): > 100 µM (inactive)
- GI50 (LOX IMVI): > 100 µM (inactive)
- GI50 (LXFL 529): > 100 µM (inactive)
- GI50 (M14): > 100 µM (inactive)
- GI50 (M19-MEL): > 100 µM (inactive)
- GI50 (Malme-3M): > 100 µM (inactive)
- GI50 (NCI-H226): > 100 µM (inactive)
- GI50 (NCI-H460): > 100 µM (inactive)
- GI50 (NCI-H522): 46.1 µM (inactive)
- GI50 (OVCAR-3): > 100 µM (inactive)
- GI50 (OVCAR-4): > 100 µM (inactive)
- GI50 (OVCAR-5): > 100 µM (inactive)
- GI50 (OVCAR-8): > 100 µM (inactive)
- GI50 (RPMI-8226): > 100 µM (inactive)
- GI50 (RXF 393): 20.1 µM (inactive)
- GI50 (RXF 631): > 100 µM (inactive)
- GI50 (SF-268): 43.9 µM (inactive)
- GI50 (SF-295): 58.9 µM (inactive)
- GI50 (SF-539): > 100 µM (inactive)
- GI50 (SK-MEL-28): > 100 µM (inactive)
- GI50 (SK-MEL-2): 47.3 µM (inactive)
- GI50 (SK-MEL-5): > 100 µM (inactive)
- GI50 (SK-OV-3): > 100 µM (inactive)
- GI50 (SN12C): > 100 µM (inactive)
- GI50 (SNB-75): > 100 µM (inactive)
- GI50 (SNB-78): 76.2 µM (inactive)
- GI50 (SR): > 100 µM (inactive)
- GI50 (SW-620): > 100 µM (inactive)
- GI50 (TK-10): > 100 µM (inactive)
- GI50 (U-251): 86.7 µM (inactive)
- GI50 (UACC-257): > 100 µM (inactive)
- GI50 (UACC-62): > 100 µM (inactive)
- GI50 (UO-31): 76.2 µM (inactive)
- GI50 (XF498): > 100 µM (inactive)
